Laboratory results taken from article PMC7392887, “Structural signatures in EPR3 define a unique class of plant carbohydrate receptors” (Nature Communications, 2020).

T1: EPR3 (Lotus japonicus, UniProt D3KU53)
T1 construct: gene LYS3; ectodomain (M1, M2, LysM3, stem), residues 33-232; N-terminal gp67 secretion signal, C-terminal 6xHis tag; secreted from Sf9 insect cells (baculovirus); glycosylated or PNGase F-treated; monomer
T1 sequence (D3KU53 33-232): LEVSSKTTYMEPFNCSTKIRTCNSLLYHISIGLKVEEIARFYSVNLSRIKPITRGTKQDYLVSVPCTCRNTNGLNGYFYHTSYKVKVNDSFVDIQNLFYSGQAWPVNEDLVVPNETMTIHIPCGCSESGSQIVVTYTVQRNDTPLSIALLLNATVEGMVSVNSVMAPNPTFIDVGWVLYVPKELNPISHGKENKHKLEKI

T2: Lotus japonicus exopolysaccharide receptor 3 (EPR3) ectodomain (Lotus japonicus ecotype Gifu, N-linked oligosaccharides (glycosylated))
T2 construct: EPR3 (exopolysaccharide receptor 3), Lotus japonicus ecotype Gifu, ectodomain, residues 33-232; Codon-optimised for insect cells, vector pOET2; also called Lotus EPR3; glycosylated EPR3; source: Sf9 (baculovirus), secreted into the medium, purified (HisTrap excel, HisTrap HP, Superdex 75)
T2 chain: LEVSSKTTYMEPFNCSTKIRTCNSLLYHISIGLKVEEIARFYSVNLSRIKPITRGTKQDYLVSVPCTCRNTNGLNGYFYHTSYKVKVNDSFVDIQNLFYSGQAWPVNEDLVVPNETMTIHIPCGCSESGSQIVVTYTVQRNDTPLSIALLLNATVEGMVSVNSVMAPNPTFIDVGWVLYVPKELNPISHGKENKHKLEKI


Assays:
EPR3 = target: T1, EPR3; assay: microscale thermophoresis; type: binding; settings: labelled EPR3 (Blue NHS, 100 nM); 50 mM K2PO4 pH 7.8, 500 mM NaCl, 0.05% Tween-20; 25 °C; n = 3
[1] = target: T2, Lotus japonicus exopolysaccharide …; assay: SEC; analytic Superdex 75 Increase 3.2/300 column; mobility shift of the complex; settings: both partners purified

Molecule	Kd (EPR3) [µM]	binding result [1]
O=C(O)[C@H]1O[C@@H](O[C@H]2[C@H](O)[C@@H](O)[C@@H](O[C@H]3[C@H](O)[C@@H](O)[C@H](OC[C@H]4O[C@@H](OC[C@H]5O[C@@H](O[C@H]6[C@H](O)[C@@H](O)[C@H](O[C@H]7[C@H](O)[C@@H](O)[C@H](O[C@H]8[C@@H](O)[C@@H](CO)OC(O)[C@@H]8O)O[C@@H]7CO)O[C@@H]6CO)[C@H](O)[C@@H](O)[C@@H]5O)[C@H](O)[C@@H](O)[C@@H]4O)O[C@@H]3CO)O[C@@H]2C(=O)O)[C@H](O)[C@@H]1O (some centres unmarked) [deOAc-EPS]	31.3 ± 11.7	–
Nb186 (VHH, llama (Lama glama) nanobody selected by phage display against EPR3; Cloned into pET22b(+) for bacterial expression; also called nanobody Nb186; source: E. coli LOBSTR, purified (Ni Sepharose 6 FF, Superdex 75)) VHH: QVQLVESGGGLVQPGGSLRLSCAASGSIFSIDYMGWYRQAPGKERELVAIKTSGGTTHYADSVKGRFTISRDNAKNTVYLQMNSLKPDDTAVYYCNARVYFGDRDYWGQGTQVTVSS	–	binds
